Literature values as cited in patent publication US20110268798A1, “ORALLY DISNTEGRATING TABLETS FOR THE TREATMENT OF PAIN” (ADD ADVANCED DRUG DELIVERY TECHNOLOGIES LTD, priority 2009, published 2011).

Tests used:
[1] = not given; remark: listed apart in the source

Row | Structure (SMILES) | solubility in ether | solubility in methylene chloride (methylene chloride) | solubility in water | stability in air / moisture ([1]; dry air, moisture) | stability versus pH ([1]; pH) | stability versus temperature ([1]; temperature) | solubility in alcohol (alcohol) | solubility in chloroform (chloroform)
1 | CC(=O)Nc1ccc(O)cc1 [Acetaminophen, N-(4-hydroxyphenyl)acetamide] | very slightly soluble | very slightly soluble | sparingly soluble | – | – | – | – | –
2 | CC(=O)Oc1ccccc1C(=O)O [Acetylsalicylic acid, 2(acetyloxy)benzoic acid] | soluble | – | slightly soluble | stable in dry air but hydrolyses in contact with moisture to acetic and salicylic acids | pH-dependent stability profile | sensitive to temperature | freely soluble | soluble
